Laboratory results published in publication PMC10882622, “Cytosolic Delivery of Bioactive Cyclic Peptide Cargo by Spontaneous Membrane Translocating Peptides” (ACS Omega, 2024).
Where “and” joins values, the source holds several entries; their conditions need not be identical. Equal values may be shown once. Numbered stars: 1 amine (or outer) side, 2 acyl side, 3 side chain; on linkers, the order of the positions; unused ones are H or OH. Bridge positions count the residues as written; N and C are the ends. Square brackets hold non-standard residues; d marks the D form. Peptide text beside a SMILES is read from it. I, II: the chains in the order shown. Trp(2-yl) = O=C([C@H](Cc1c([*:3])[nH]c2ccccc12)N[*:1])[*:2]; X1 = O=C1CC([*:1])C(=O)N1CC1CCC(C(=O)[*:2])CC1; Leu(4R-OH,5-OH) = C[C@](O)(CO)C[C@H](N)C(=O)O; cisHyp = O=C(O)[C@@H]1C[C@H](O)CN1

How the values were obtained:
pyrene-labeled actin = molecular target: T1, pyrene-labeled actin (Oryctolagus cuniculus, UniProt P68135); test: in vitro actin depolymerization assay (pyrene excimer fluorescence, Cytoskeleton kit); assay type: biochemical; conditions: polymerized pyrene-actin, 0–50 μM, rates by linear regression, normalized to buffer-only control, averaged; read-out: EC50 for inhibition of actin depolymerization (initial depolymerization rate vs concentration)
T1 construct: purchased Cytoskeleton, Inc
Description: An actin polymerization biochemistry kit (Cytoskeleton, Inc.) was used to assay the bioactivity of the phalloidin conjugates. All experiments were performed in a 96-well format and read on a fluorescent plate reader (Biotek Synergy II). Actin-pyrene monomers formed filamentous actin by using the supplied polymerization buffer, which caused pyrene excimer fluorescence (excitation 365 nm and emission 407 nm). Serial dilutions of phalloidin or TP2-SMCC-Ph were added to the filamentous actin-pyrene as well as a no peptide control. A supplied depolymerization buffer was then added to samples, and loss of fluorescence was monitored on the plate reader as a function of time. […] Calculated rates are normalized to the buffer-only controls.
The 7-position of natural phalloidin is a 4,5-dihydroxy leucine residue. […] Pyrene excimer fluorescence is measured such that depolymerization will drive a decrease in intensity. Polymerized actin, with added phalloidin or TP2-SMCC-Ph, is triggered to depolymerize at time zero, and the rate of excimer decrease is measured.
Figure 3 Control experiments. […] Pyrene excimer fluorescence was excited at 390 nm and monitored at 460 nm over 1 h. (B) Initial depolymerization rates from experiments such as the one shown in Panel A were measured by linear regression and averaged. […] Right axis: washed human red blood cells were incubated for 1 h, and hemoglobin release was measured.

HeLa cells = test: cytotoxicity, cell viability by Alamar Blue; assay type: cell-based, human; conditions: Alamar Blue fluorescence after 72 h
Description: Validated HeLa human […] cancer cells and HT1080 human epithelial fibrosarcoma cells were obtained from ATCC and were used at a low passage number without modification. All cells were maintained in T75 flasks in an incubator at 37 °C, 5% CO2 in complete media: DMEM containing 10% (%v/v) FBS, glucose, sodium pyruvate, L-glutamine, nonessential amino acids, and antibiotics. Serum-free media (SFM) was prepared in the same fashion as complete media but lacked FBS. Cells were maintained daily with two DPBS washes and replacement of complete media. When ≥90% confluent, cells were passaged using trypsin and seeded into another T75 flask and/or 96-well plates.
(§1) Figure 3 Control experiments. (A) Example in vitro actin depolymerization assay. Depolymerization of pyrene-labeled actin from Cytoskeleton, Inc. was initiated at time zero in the presence of 0–50 μM TP2-S-Ph conjugate. Pyrene excimer fluorescence was excited at 390 nm and monitored at 460 nm over 1 h. (B) Initial depolymerization rates from experiments such as the one shown in Panel A were measured by linear regression and averaged. We show depolymerization rates versus concentration for phalloidin and for the D-TP2-S-Ph conjugate. EC50 values are ∼3 μM for phalloidin and ∼6 μM for D-TP2-S-Ph. (C) Cytotoxicity and hemolysis caused by TP2, phalloidin, and the TP2-S-Ph chimera. Left axis: HeLa cells were incubated with the indicated concentration of compound for 4 h, and cell viability was measured by Alamar Blue fluorescence after 72 h. Right axis: washed human red blood cells were incubated for 1 h, and hemoglobin release was measured.
(§2) To further test for indirect cytotoxicity, we incubated HeLa cells with TP2-S-Ph, TP2 alone, and free phalloidin for 72 h, Figure 3C, and measured cell viability using Alamar Blue.

human red blood cells = test: hemolysis, hemoglobin release; assay type: cell-based; conditions: washed human red blood cells, incubated 1 h
Description: as §1, §2

HT1080 cells = test: wound-healing scratch (cell migration) assay; assay type: cell-based, human; design: cell migration: dose or concentration left out as unconfirmed
Description: A total of 30,000 HT1080 cells were seeded into each well of a 96-well plate in complete media and incubated for 24 h. Cells were washed with DPBS and incubated in serum-free media (SFM) for the next 48 h. Treatment with TP1/2/3-S-Ph, cytochalasin D, or media control, containing DMSO equal to treatment (% v/v), was done for four h at 37 °C. Cells were washed three times with DPBS and then scratched with 10 μL pipet tips on a multichannel pipettor. Evaluation of area closure was performed by phase contrast microscopic imaging of each well at 4× magnification, hourly, for 24 h with the Biotek Cytation 5 cell imaging reader and the BioSpa 8 automated incubator. Only the linear portion of the time course, up to 8 h, was used for analysis. For each condition studied, the scratch assay was performed in at least 6 biologically independent experiments, and each experiment consisted of 2–3 technical replicates.
ImageJ was used to trace the perimeter of each scratch. The gap area (GA) of each scratch was generated with ImageJ via batch processing with a lower threshold of 0 and an upper threshold of 60. The gap area for treatment groups was averaged and relativized as follows: [drawing 1]
Mean relative GA was plotted over time, and the absolute value of the slope from 1 to 8 h for each treatment was determined. Lastly, slopes were normalized against SFM controls.
We performed 4 h incubation in the presence of peptide chimeras and then washed the cells with PBS three times prior to conducting the scratch-closing measurements. This approach enabled us to assay only for rapid and nonreversible delivery of phalloidin cargo to the cytosol of cells by the peptides. The control compound cytochalasin D needed to be maintained at the noted concentration throughout the entire incubation time because, unlike the peptides, it is readily washed out of cells and has no effect if incubated for 4 h and washed away.
Figure 4 Example scratch assay. For this assay, a total of 30,000 HT1080 cells were seeded into each well of a 96-well cell culture plate in complete media and incubated for 24 h. Cells were washed with DPBS and incubated in serum-free media (SFM) for the next 48 h. Treatment with serum-free media, cytochalasin D, or peptide was done for 4 h at 37 °C. Cells were washed three times with DPBS and then scratched with 10 μL pipet tips on a multichannel pipettor. Cytochalasin D was replaced at the intended concentration, but the peptide was not. Evaluation of wound area was performed by phase contrast microscopic imaging of each well at 4× magnification with a BioTek Cytation 5 cell imaging reader and the BioSpa 8 automated incubator. Here, we show example images from a typical scratch assay taken 0, 1, 3, and 6 h after scratching a channel in the middle of the surface. Red lines show the edge of the wound identified by ImageJ and were used to calculate the total wound area from each image.
Migration rates were normalized to that of the NT/SFM group, which was always the fastest closing group. Each experiment was repeated in at least 6 biologically independent experiments, and each biologically independent experiment was repeated in 2–3 technical replicates.

[1] = 100 nM continuous, HT1080, serum-free media

Compound | EC50 (pyrene-labeled actin) | toxicity to HeLa cells (cell viability) (HeLa cells; 0–25 μM concentration range) | toxicity to HeLa cells (cell viability) (HeLa cells; at 50 μM) | hemolysis of red blood cells (human red blood cells) | size of effect on cell migration compared with cytochalasin D control (HT1080 cells; 25 μM, applied for 4 h then washed off, control 100 nM continuous CD) | effect on migration (mean wound closure rate) compared to no treatment, one-way ANOVA (HT1080 cells; at 25, 12.5, 6.3, and 3.1 μM, 4 h incubation then washed, slope 1–8 h, at least 6 independent experiments) | cell migration over the first 6 h (HT1080 cells; [1]) | inhibition of cell movement (HT1080 cells; [1]) | effect on cell migration after wash-out (HT1080 cells; incubated for 4 h and washed away) | cell migration (HT1080 cells; treatment, continuous, HT1080) | cytotoxic effects on HeLa cells (cell viability) (HeLa cells; up to 1 mM)
CC[C@@H](C)[C@@H](NC(=O)[C@@H](CC(C)C)NC(=O)[C@H]1CCCN1)C(=O)N[C@H](Cc1ccc(O)cc1)C(=O)N[C@H](CC(C)C)C(=O)N[C@H](CCCNC(=N)N)C(=O)N[C@H](CC(C)C)C(=O)N[C@H](CC(C)C)C(=O)N[C@H](CCCNC(=N)N)C(=O)NCC(=O)N[C@H](CCC(N)=O)C(=O)N[C@H](Cc1c[nH]c2ccccc12)C(=O)N[C@H](CSC1CC(=O)N(CC2CCC(C(=O)NCCCC[C@@H]3NC(=O)[C@@H]4Cc5c([nH]c6ccccc56)SC[C@H](NC(=O)[C@@H]([C@H](C)O)NC(=O)[C@H](C)NC3=O)C(=O)N3C[C@@H](O)C[C@H]3C(=O)N[C@@H](C)C(=O)N4)CC2)C1=O)C(N)=O (stereo partly drawn) [TP2-S-Ph] (I: H-[dP][dL][dI][dY][dL][dR][dL][dL][dR]G[dQ][dW][dC]-NH2 / II: cyclo([cisHyp]A[Trp(2-yl)]KA[dT]C); linker I:13-II:4 via X1; thioether II:3-II:7) | < 5 µM and ~6 µM | Neither the conjugated TP2 nor TP2 alone showed any toxicity | the conjugate did not | no hemolytic activity | at least as large as the CD control | significant effects |  |  |  |  | 
C=C1[C@@H](C)[C@H]2[C@H](Cc3ccccc3)NC(=O)[C@]23[C@H](OC(C)=O)/C=C/[C@@](C)(O)C(=O)[C@@H](C)C/C=C/[C@H]3[C@@H]1O [cytochalasin D] |  |  |  |  |  |  | little to no migration | inhibited cell movement completely | no effect | some migration | 
C[C@@H]1NC(=O)[C@H](C[C@@](C)(O)CO)NC(=O)[C@@H]2Cc3c([nH]c4ccccc34)SC[C@H](NC(=O)[C@@H]([C@H](C)O)NC1=O)C(=O)N1C[C@@H](O)C[C@H]1C(=O)N[C@@H](C)C(=O)N2 [phalloidin] (cyclo(A[dT]C[cisHyp]A[Trp(2-yl)][Leu(4R-OH,5-OH)]); thioether 3-6 (inferred); ring closure inferred) | < 5 µM and ~3 µM |  |  |  |  |  |  |  |  |  | no cytotoxic effects
